In brackets after ≈: the same amount, converted by molar mass.
Assays:
[1] = Stability in acidic environment at 25° C. (half-life of initial microbiological activity); format: physicochemical; settings: aqueous solution
Protocol: Stability in acidic environnment at 25° C. of the novel
Note: t 1/2 represents the time for reducing to one half the initial powe
of the antibiotic determined by microbiological method through diffusion
on a plate using the test stock Microccocus luteus (Sarcina lutea) ATCC

[2] = test system: Acholeplasma laidlawii ATCC 23206 LRP 204; test: Bacteriostatic power in solid medium (MIC); format: cell-based; settings: Acholeplasma laidlawii, ATCC23206; solid medium; read-out: Minimum inhibiting concentration
Excerpt: (§1) the bacteriostatic power, expressed as the minimum inhibiting concentration (MIC) against both aerobic and anaerobic, Gram positive and Gram negative, bacterial stocks: the related results are reported in the tables 2 and 3.

Bacillus subtilis LRP 25 = test: Bacteriostatic power in solid medium (MIC); format: cell-based; settings: Bacillus subtilis, LRP25; solid medium; read-out: Minimum inhibiting concentration
Excerpt: as §1

[3] = test system: Bacteroides fragilis ATCC 23745 LRP 205; test: Bacteriostatic power in solid medium (MIC); format: cell-based; settings: Bacteroides fragilis, ATCC23745; solid medium; anaerobic; read-out: Minimum inhibiting concentration
Excerpt: as §1

[4] = test system: Corynebacterium diphteriae LRP 24; test: Bacteriostatic power in solid medium (MIC); format: cell-based; settings: Corynebacterium, LRP24; solid medium; read-out: Minimum inhibiting concentration
Excerpt: as §1

Escherichia coli LRP 50 = test: Bacteriostatic power in solid medium (MIC); format: cell-based; settings: Escherichia coli, LRP50, read-out: Minimum inhibiting concentration
Excerpt: as §1

[5] = test system: Fusobacteriumnecrophroum ATCC 27852 LRP 210; test: Bacteriostatic power in solid medium (MIC); format: cell-based; settings: read-out: Minimum inhibiting concentration
Excerpt: as §1

[6] = test system: Haemophilus influenzae ATCC 19418 LRP 213; test: Bacteriostatic power in solid medium (MIC); format: cell-based; settings: Haemophilus influenzae, ATCC19418, read-out: Minimum inhibiting concentration
Excerpt: as §1

[7] = test system: Klelsiella pneumoniae LRP 54; test: Bacteriostatic power in solid medium (MIC); format: cell-based; settings: solid medium; read-out: Minimum inhibiting concentration
Excerpt: as §1

[8] = test system: Micrococcus luteus ATCC 15957 LRP 193; test: Bacteriostatic power in solid medium (MIC); format: cell-based; settings: Micrococcus luteus, ATCC15957; solid medium; Erythromycin resistant; read-out: Minimum inhibiting concentration
Excerpt: as §1

[9] = test system: Micrococcus luteus ATCC 9341 LRP 6; test: Bacteriostatic power in solid medium (MIC); format: cell-based; settings: Micrococcus luteus, ATCC9341; solid medium; read-out: Minimum inhibiting concentration
Excerpt: as §1

[10] = test system: Mycoplasma hominis I ATCC 14027 LRP 211; test: Bacteriostatic power in solid medium (MIC); format: cell-based; settings: Metamycoplasma hominis, ATCC14027; solid medium; read-out: Minimum inhibiting concentration
Excerpt: as §1

[11] = test system: Neisseria gonorrhoeae ATCC 19424 LRP 214; test: Bacteriostatic power in solid medium (MIC); format: cell-based; settings: Neisseria gonorrhoeae, ATCC19424; solid medium; read-out: Minimum inhibiting concentration
Excerpt: as §1

[12] = test system: Proteus vulgaris ATCC 6380 LRP 13; test: Bacteriostatic power in solid medium (MIC); format: cell-based; settings: Proteus vulgaris, ATCC6380; solid medium; read-out: Minimum inhibiting concentration
Excerpt: as §1

[13] = test system: Pseudomonas aeruginosa LRP 9; test: Bacteriostatic power in solid medium (MIC); format: cell-based; settings: Pseudomonas aeruginosa, LRP9; solid medium; read-out: Minimum inhibiting concentration
Excerpt: as §1

Shigella sonnei LRP 5 = test: Bacteriostatic power in solid medium (MIC); format: cell-based; settings: LRP5, read-out: Minimum inhibiting concentration
Excerpt: as §1

[14] = test system: Staphylococcus aureus ATCC 14154 LRP 78; test: Bacteriostatic power in solid medium (MIC); format: cell-based; settings: Staphylococcus aureus, ATCC14154; solid medium; Erythromycin resistant; read-out: Minimum inhibiting concentration
Excerpt: as §1

[15] = test system: Staphylococcus aureus ATCC 6538P LRP 14; test: Bacteriostatic power in solid medium (MIC); format: cell-based; settings: Staphylococcus aureus, ATCC6538P; solid medium; Penycilline resistant; read-out: Minimum inhibiting concentration
Excerpt: as §1

[16] = test system: Staphylococcus aureus ATCC 6538P LRP 39; test: Bacteriostatic power in solid medium (MIC); format: cell-based; settings: Staphylococcus aureus, ATCC6538P; solid medium; read-out: Minimum inhibiting concentration
Excerpt: as §1

[17] = test system: Streptococcus faecalis LRP 7; test: Bacteriostatic power in solid medium (MIC); format: cell-based; settings: Enterococcus faecalis, LRP7; solid medium; read-out: Minimum inhibiting concentration
Excerpt: as §1

[18] = test system: Streptococcus faecalis subsp. zymogenes ATCC 12958 LRP 61; test: Bacteriostatic power in solid medium (MIC); format: cell-based; settings: Enterococcus faecalis, ATCC12958; solid medium; read-out: Minimum inhibiting concentration
Excerpt: as §1

[19] = test system: Streptococcus pneumoniae ATCC 6303 LRP 35; test: Bacteriostatic power in solid medium (MIC); format: cell-based; settings: Streptococcus pneumoniae, ATCC6303; solid medium; read-out: Minimum inhibiting concentration
Excerpt: as §1

[20] = test system: Streptococcus pneumoniae ATCC 6303 LRP 52; test: Bacteriostatic power in solid medium (MIC); format: cell-based; settings: Streptococcus pneumoniae, ATCC6303; solid medium; read-out: Minimum inhibiting concentration
Excerpt: as §1

[21] = test system: Streptococcus pneumoniae ATCC 6303 LRP 53; test: Bacteriostatic power in solid medium (MIC); format: cell-based; settings: Streptococcus pneumoniae, ATCC6303; solid medium; read-out: Minimum inhibiting concentration
Excerpt: as §1

[22] = test system: Streptococcus pyogenes ATCC 8668 LRP 197; test: Bacteriostatic power in solid medium (MIC); format: cell-based; settings: Streptococcus pyogenes, ATCC8668; solid medium; read-out: Minimum inhibiting concentration
Excerpt: as §1

[23] = test system: Streptococcus pyogenes ATCC 8668 LRP 34; test: Bacteriostatic power in solid medium (MIC); format: cell-based; settings: Streptococcus pyogenes, ATCC8668; solid medium; read-out: Minimum inhibiting concentration
Excerpt: as §1

[24] = test system: Clostridium perfrigens ATCC 3624 LRP 206; test: microbe, parasite or virus in culture; format: cell-based; settings: ATCC3624, solid medium, anaerobic, read-out: Minimum inhibiting concentration
Excerpt: as §1

Salmonella typhy LRP 8 = test: microbe, parasite or virus in culture; format: cell-based; settings: LRP8, solid medium, read-out: Minimum inhibiting concentration
Excerpt: as §1

[25] = test system: Corynebacterium diphteriae LRP 24; test: Bacteriostatic power in liquid medium (MIC); format: cell-based; settings: Corynebacterium, LRP24; liquid medium; read-out: Minimum inhibiting concentration
Excerpt: as §1

[26] = test system: Staphylococcus aureus ATCC 6538 P LRP 39; test: Bacteriostatic power in liquid medium (MIC); format: cell-based; settings: Staphylococcus aureus, ATCC6538; liquid medium; read-out: Minimum inhibiting concentration
Excerpt: as §1

[27] = test system: Streptococcus faecalis subs. zymogenes ATCC 12958 LRP 61; test: Bacteriostatic power in liquid medium (MIC); format: cell-based; settings: Enterococcus faecalis, ATCC12958; liquid medium; read-out: Minimum inhibiting concentration
Excerpt: as §1

[28] = test system: Streptococcus pneumoniae ATCC 6303 LRP 35; test: Bacteriostatic power in liquid medium (MIC); format: cell-based; settings: Streptococcus pneumoniae, ATCC6303; liquid medium; read-out: Minimum inhibiting concentration
Excerpt: as §1

[29] = test system: Streptococcus pyogenes ATCC 8668 LRP 34; test: Bacteriostatic power in liquid medium (MIC); format: cell-based; settings: Streptococcus pyogenes, ATCC8668; liquid medium; read-out: Minimum inhibiting concentration
Excerpt: as §1

[30] = test system: Corynebacterium diphteriae LRP 24; test: Minimum bactericidal concentration (MBC); format: cell-based
Excerpt: (§2) the bacterial power, expressed as the minimum bactericidal power (MBC) against some Gram positive aerobic stocks (table 5).

[31] = test system: Staphylococcus aureus ATCC 6538 P LRP 39; test: Minimum bactericidal concentration (MBC); format: cell-based
Excerpt: as §2

[32] = test system: Streptococcus faecalis subs. zymogenes LRP 61; test: Minimum bactericidal concentration (MBC); format: cell-based
Excerpt: as §2

[33] = test system: Streptococcus pneumoniae ATCC 6303 LRP 35; test: Minimum bactericidal concentration (MBC); format: cell-based
Excerpt: as §2

[34] = test system: Streptococcus pyogenes ATCC 8668 LRP 34; test: Minimum bactericidal concentration (MBC); format: cell-based
Excerpt: as §2

In the case of `CC[C@H]1OC(=O)[C@H](C)[C@@H](O[C@H]2C[C@@](C)(O)[C@@H](O)[C@H](C)O2)[C@H](C)[C@@H](O[C@@H]2O[C@H](C)C[C@H](N(C)C)[C@H]2O)[C@](C)(O)C[C@](C)(F)C(=O)[C@H](C)[C@@H](O)[C@]1(C)O` [P-80205, (8S)-8-fluoroerythromycin C], the half-life ([1]; pH 2) is reported as 1.65 h, the half-life ([1]; pH 3) is reported as 41.5 h and the MIC [2] is reported as 3.12 µg/mL (≈ 4.23 µM). It also gave an MIC (Bacillus subtilis LRP 25) of 0.097 µg/mL (≈ 0.131 µM), an MIC [3] of 0.78 µg/mL (≈ 1.06 µM) and an MIC [4] of 0.012 µg/mL (≈ 0.0163 µM). The MIC (Escherichia coli LRP 50) was 12.5 µg/mL (≈ 16.9 µM), the MIC [5] was 12.5 µg/mL (≈ 16.9 µM) and the MIC [6] was 12.5 µg/mL (≈ 16.9 µM). The MIC [7] was 25 µg/mL (≈ 33.9 µM), the MIC [8] was 25 µg/mL (≈ 33.9 µM) and the MIC [9] was 0.012 µg/mL (≈ 0.0163 µM). For the same compound, the MIC [10] was 25 µg/mL (≈ 33.9 µM), the MIC [11] was 0.195 µg/mL (≈ 0.264 µM) and the MIC [12] was 25 µg/mL (≈ 33.9 µM). For the same compound, the MIC [13] was 25 µg/mL (≈ 33.9 µM), the MIC (Shigella sonnei LRP 5) was 25 µg/mL (≈ 33.9 µM) and the MIC [14] was 25 µg/mL (≈ 33.9 µM). It also gave an MIC [15] of 0.097 µg/mL (≈ 0.131 µM), an MIC [16] of 0.097 µg/mL (≈ 0.131 µM) and an MIC [17] of 0.097 µg/mL (≈ 0.131 µM). It also gave an MIC [18] of 0.097 µg/mL (≈ 0.131 µM), an MIC [19] of 0.024 µg/mL (≈ 0.0325 µM) and an MIC [20] of 0.012 µg/mL (≈ 0.0163 µM). For the same compound, the MIC [21] was 0.024 µg/mL (≈ 0.0325 µM), the MIC [22] was 0.024 µg/mL (≈ 0.0325 µM) and the MIC [23] was 0.024 µg/mL (≈ 0.0325 µM). It also gave an MIC [24] of 6.25 µg/mL (≈ 8.47 µM), an MIC (Salmonella typhy LRP 8) of 12.5 µg/mL (≈ 16.9 µM) and an MIC [25] of 0.049 µg/mL (≈ 0.0664 µM). The MIC [26] was 0.195 µg/mL (≈ 0.264 µM), the MIC [27] was 0.39 µg/mL (≈ 0.529 µM) and the MIC [28] was 0.097 µg/mL (≈ 0.131 µM). It also gave an MIC [29] of 0.049 µg/mL (≈ 0.0664 µM), an MBC/MIC [30] of 8 and an MBC ([30]; Corynebacterium, LRP24, read-out: Minimum bactericidal concentration (MBC)) of 0.39 µg/mL (≈ 0.529 µM). The MBC/MIC [31] was 16, the MBC ([31]; Staphylococcus aureus, ATCC6538, read-out: Minimum bactericidal concentration (MBC)) was 3.12 µg/mL (≈ 4.23 µM) and the MBC/MIC [32] was > 8. The MBC ([32]; Enterococcus faecalis, read-out: Minimum bactericidal concentration (MBC)) was > 3.12 µg/mL, the MBC/MIC [33] was 2 and the MBC ([33]; Streptococcus pneumoniae, ATCC6303, read-out: Minimum bactericidal concentration (MBC)) was 0.195 µg/mL (≈ 0.264 µM). The MBC/MIC [34] was 16 and the MBC ([34]; Streptococcus pyogenes, ATCC8668, read-out: Minimum bactericidal concentration (MBC)) was 0.78 µg/mL (≈ 1.06 µM).

Source: patent US4439426A, “Semisynthetic macrolidic antibiotics, intermediate compounds for their preparation and related pharmaceutical compositions containing them” (priority 1981, dated 1984)
